System: NCI-H295R
Experiment: IC50 (antiproliferative, ATP content)
Details: 48 h
In short: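 Cell viability of adrenocortical carcinoma cells was assessed as ATP by CellTiter-Glo luminescence. Cells at 1500 per well in 1536-well plates, in serum-free DMEM with ITS, received compounds by pin transfer at 8 final concentrations (0.6 nM–46 µM) after overnight culture and were then held 48 h at 37 °C, 5% CO2. IC50 was calculated by logistic fitting against vehicle and positive-control wells, compounds with no concentration response being recorded as above the top dose.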

SMILES | IC50 [µM]
O=[C@@]([O-])[C@@H](CC3=CC=CC=C3)CC(N1C[C@@]2([H])[C@@](CCCC2)([H])C1)=O.O=[C@@]([O-])[C@@H](CC6=CC=CC=C6)CC(N4C[C@@]5([H])[C@@](CCCC5)([H])C4)=O.O.O.[Ca+2] | > 46
CCCCC/C=C\C/C=C\CCCCCCCC(=O)OCC | > 46
CCCCCCCCCCC(CO)CCCCCCCC (stereo not given) | > 46
OCC1(CO)COC(C(Cl)(Cl)Cl)OC1 | > 46
CC(CN(C)C)CN1c2ccccc2CCc2ccccc21.O=C(O)/C=C\C(=O)O (stereo not given) | > 46
CCN(CC)CC(=O)Nc1c(C)cccc1C | > 46
O=C1[C@@]([C@](CC5)(C)[C@]4([H])C([C@H]5O[C@@H]3[C@H](O[C@H]7[C@H](O)[C@@H](O)[C@H](O)[C@@H]([C@](O)=O)O7)[C@@H](O)[C@H](O)[C@@H]([C@@](O)=O)O3)(C)C)([H])[C@](CC4)(C)[C@@]2(C)C([C@]([C@@]6(C)CC2)([H])C[C@@](CC6)(C)[C@@](O)=O)=C1 | > 46
NCCCC[C@H](N[C@@H](CCc1ccccc1)C(=O)O)C(=O)N1CCC[C@H]1C(=O)O.O.O | > 46
CCn1cc(C(=O)O)c(=O)c2cc(F)c(N3CCN(C)CC3)cc21.CS(=O)(=O)O | > 46
Nc1ccccc1C(=O)O | > 46
COc1c2occc2c(OC)c2c(=O)cc(C)oc12 | > 46
O=C(c1ccccc1)c1ccc2n1CCC2C(=O)O (stereo not given) | > 46
O=C([C@@H](N(C)[C@]([C@H](CCC4)N4C([C@@H](CC)N5)=O)=O)CC2=CC=CC=C2)N(CCC1=O)C(C1)C(N[C@H](C(OC(C)[C@H](NC(C6=NC=CC=C6O)=O)C5=O)=O)C3=CC=CC=C3)=O (stereo not given in full) | > 46
CCCCCCCCCCCCCCCC(=O)OC[C@@H](O)[C@H]1OC[C@H](O)[C@H]1O | > 46
CN1C(=O)CC(c2ccccc2)C1=O (stereo not given) | > 46
Cc1ncc([N+](=O)[O-])n1CC(O)CCl (stereo not given) | > 46
OCCOCCOCCO | > 46
Cl.O=C(OCCN1CCCCC1)C(O)(c1ccccc1)c1ccccc1 | > 46
Cc1cc2c(OCC(CNC(C)(C)C)OC(=O)c3ccccc3)cccc2[nH]1 (stereo not given) | > 46
O=C(O)/C=C\C(=O)O.O=C(O)/C=C\C(=O)O.c1cc(CN2CCCCC2)cc(OCCCNc2nc3ccccc3s2)c1 | > 46
CC(=O)Oc1ccc(C(c2ccc(OC(C)=O)cc2)c2ccccn2)cc1 | > 46
O[C@@H]3C\C4=C\C[C@@H]2[C@H](CC[C@]1(C)C(=O)CC[C@H]12)[C@@]4(C)CC3 | > 46

SMILES | IC50 [µM]
CC(=O)OCC(=O)NCCCOc1cccc(CN2CCCCC2)c1.Cl | > 46
CCCCCCC(=O)CCCCCC/C=C/C[C@@H](O)[C@H](O)[C@@](N)(CO)C(=O)O | > 46
Cc1c[nH]c2ccccc12 | > 46
O=[N+]([O-])c1cc([As](=O)(O)O)ccc1O | > 46
CC=Cc1ccc(OC)cc1 | > 46
CCCc1cc(=O)[nH]c(=S)[nH]1 | > 46
O=[C@](N[C@@H](C)CO)[C@@H](C4)C=C(C2=C1C(C3)=CNC1=CC=C2)[C@]3([H])N4C | > 46
CC1CC(O)CC(C)(C)C1 (stereo not given) | > 46
CO/N=C(\C(=O)N[C@@H]1C(=O)N2C(C(=O)O)=C(CSc3cnns3)CS[C@H]12)c1csc(N)n1.Cl | > 46
C[C@]12CCC(=O)C[C@@H]1CC[C@@H]1[C@@H]2CC[C@]2(C)[C@@H](O)CC[C@@H]12 | > 46
CC[C@H]1OC(=O)[C@H](C)[C@@H](O[C@H]2C[C@@](C)(OC)[C@@H](O)[C@H](C)O2)C(C)[C@@H](O[C@@H]2O[C@H](C)C[C@H](N(C)C)[C@H]2O)[C@](C)(OC)C[C@@H](C)C(=O)[C@H](C)[C@@H](O)[C@]1(C)O (stereo not given in full) | > 46
C[N+](C)(C)CCCCCC[N+](C)(C)C | > 46
[H][C@@]23N(CCC4=C3NC5=C4C=CC(OC)=C5)C[C@@]1([H])C[C@@H](OC(COC6=CC=C(OC)C=C6)=O)[C@H](OC)[C@@H]([C@@](OC)=O)[C@]([H])1C2 | > 46
CO/N=C(/C(=O)N[C@@H]1C(=O)N2C(C(=O)[O-])=C(COC(C)=O)CS[C@H]12)c1csc(N)n1.[Na+] | > 46
CCN(CC)CCCC(C)Nc1cc(C=Cc2ccccc2Cl)nc2cc(Cl)ccc12 (stereo not given) | > 46
COc1ccc(-c2cc(=S)ss2)cc1 | > 46
CC(C(=O)O)c1ccc(C(=O)c2cccs2)cc1 (stereo not given) | > 46
Nc1ccc(S(N)(=O)=O)cc1 | > 46
CC(=O)O[C@@H]3C\C4=C\C[C@@H]2[C@H](CC[C@]1(C)C(=O)CC[C@H]12)[C@@]4(C)CC3 | > 46
CCC(=O)O[C@]1(C(=O)SCF)[C@H](C)C[C@H]2C3C[C@H](F)C4=CC(=O)C=C[C@]4(C)[C@@]3(F)[C@@H](O)C[C@@]21C (stereo not given in full) | > 46
CC(C)NCC(O)COc1ccccc1-n1cccc1 (stereo not given) | > 46
CCCCCCCCCCCCCCCC(=O)OC[C@H](COP(=O)([O-])OCC[N+](C)(C)C)OC(=O)CCCCCCCCCCCCCCC | > 46

SMILES | IC50 [µM]
CN(C)[C@@H]1C(O)=C(C(=O)NCN2CCCC2)C(=O)[C@@]2(O)C(O)=C3C(=O)c4c(O)cccc4[C@@](C)(O)C3C[C@@H]12.Cl (stereo not given in full) | > 46
CC[C@H](C)C(=O)O[C@H]1C[C@H](O)C=C2C=C[C@H](C)[C@H](CC[C@@H](O)C[C@@H](O)CC(=O)[O-])[C@H]21.[Na+] | > 46
NC(N)=O | > 46
Cc1oc(=O)oc1CN1CCN(c2cc3c(cc2F)c(=O)c(C(=O)O)c2n3C(C)S2)CC1 (stereo not given) | > 46
CN(C)C(=S)SC(=S)N(C)C | > 46
O=C(O)Cc1cccc2ccccc12 | > 46
CCN(CC)CCOC(=O)C(c1ccccc1)c1ccccc1.Cl | > 46
C[C@H](NCCc1ccc(O)cc1)[C@H](O)c1ccc(O)cc1.Cl | > 46
Cl.Nc1c2c(nc3c1CCC3)CCCC2.O | > 46
CCCCCCCCCCCCCCCCOP(=O)([O-])OCC[N+](C)(C)C | > 46
O=C(SC[C@@H](C(N(C3)[C@@H](C[C@@H]3SC2=CC=CC=C2)[C@@](O)=O)=O)C)C1=CC=CC=C1 | > 46
CC[C@]12CCCN3CCc4c(n(c5ccccc45)[C@@](O)(C(=O)OC)C1)[C@@H]32 | > 46
O=C2N1[C@]([C@@]([H])2NC(C3=C(C)ON=C3C(C(Cl)=CC=C4)=C4F)=O)([H])SC(C)(C)[C@@H]1[C@@]([O-])=O.O.[Na+] | > 46
OC[C@H]1O[C@@H](Oc2ccc(O)cc2)[C@H](O)[C@@H](O)[C@@H]1O | > 46
O=C(Nc1ccc([N+](=O)[O-])cc1)Nc1ccc([N+](=O)[O-])cc1 | > 46
C=C[C@H]1CN2CC[C@H]1C[C@@H]2[C@@H](O)c1ccnc2ccc(OC)cc12 | > 46
CC(=O)N(CC(O)CO)c1c(I)c(C(=O)NCC(O)CO)c(I)c(C(=O)NCC(O)CO)c1I (stereo not given) | > 46
NC[C@@H]1O[C@H](O[C@H]2[C@@H](O)[C@H](O[C@@H]3[C@@H](O)[C@H](N)C[C@H](N)[C@H]3O[C@H]3O[C@H](CO)[C@@H](O)[C@H](O)[C@H]3N)O[C@@H]2CO)[C@H](N)[C@@H](O)[C@@H]1O.O=S(=O)(O)O | > 46
C=CCOC(Cn1ccnc1)c1ccc(Cl)cc1Cl.O=S(=O)(O)O (stereo not given) | > 46
CCOP(=S)(OCC)Oc1cc(C)nc(C(C)C)n1 | > 46
CCOP(=S)(OCC)Oc1ccc2c(C)c(Cl)c(=O)oc2c1 | > 46

Reference: the supplement of paper PMC3493320
